Test results taken from patent publication US11369565B2, “Amino-pyrimidine skeletal muscle modulators” (Cytokinetics, Inc., priority 2010, dated 2022).

Tested on: rabbit skeletal myofibrils (approximately 90% fast fibers)
Assay: Activation of fast skeletal myofibrils (PUMA coupled-enzyme ATPase assay at pCa25)
Assay type: biochemical
Conditions: concentration at which the compound increased the enzymatic activity by 40%; calcium at pCa25; PM12 buffer pH 6.8
Procedure, shortened: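 Detergent-washed rabbit psoas myofibrils tested at calcium giving 25% of maximal rate (pCa25). ATPase activity tracked by pyruvate kinase/lactate dehydrogenase coupling, NADH oxidation read as absorbance at 340 nm, in PM12 buffer (12 mM Pipes, 2 mM MgCl2, 1 mM DTT, pH 6.8).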

Compound	Mean AC1.4
CC(=O)N1CC(NC(=O)c2ccc(F)c(-c3cnc(NC[C@]4(c5ncccc5F)C[C@H](F)C4)nc3)c2)C1 [N-(1-acetylazetidin-3-yl) {4-fluoro-3-[2-({[3-fluoro-1-(3-fluoro(2-pyridyl))cyclobutyl]methyl}aminopyrimidin-5-yl]phenyl}carboxamide]	B (B=1-10 uM)
CC(=O)NCc1ccc(-c2cnc(NC(C)(C)c3ncccc3F)nc2)cc1 [N-{[4-(2-{[1-(3-fluoro(2-pyridyl))-isopropyl}amino}pyrimidin-5-yl)phenyl]methyl}acetamide]	D (D=>20 uM)
Cc1nc(N)ncc1-c1cnc(NC[C@]2(c3ncccc3F)C[C@H](F)C2)nc1 [[5-(2-amino-4-methylpyrimidin-5-yl)pyrimidin-2-yl]{[3-fluoro-1-(3-fluoro(2-pyridyl))cyclobutyl]methyl}amine]	C (C=10-20 uM)
Nc1ccc(-c2cnc(NC[C@]3(c4ncccc4F)C[C@H](F)C3)nc2)nn1 [[5-(6-aminopyridazin-3-yl)pyrimidin-2-yl]{[3-fluoro-1-fluoro(2-pyridyl))cyclobutyl]methyl}amine]	B (B=1-10 uM)
CC(C)(Nc1ncc(C(N)=O)cn1)c1ncccc1Cl [2-{[1-(3-chloro(2-pyridyl))-isopropyl]amino}pyrimidine-5-carboxamide]	D (D=>20 uM)
N#Cc1cc(-c2cnc(NC3(c4ccc(F)cc4)CCC3)nc2)ccn1 [4-(2-{[(4-fluorophenyl)cyclobutyl]amino}pyrimidin-5-yl)pyridine-2-carbonitrile]	C (C=10-20 uM)
CC(C)(Nc1ncc(-n2cc(C(N)=O)cn2)cn1)c1ncccc1F [1-(2-{[1-(3-fluoro(2-pyridyl))-isopropyl]amino}pyrimidin-5-yl)pyrazole-4-carboxamide]	D (D=>20 uM)
COc1ncc(-c2cnc(NC[C@]3(c4ncccc4F)C[C@H](F)C3)nc2)cn1 [{[3-fluoro-1-(3-fluoro(2-pyridyl))cyclobutyl]methyl} [5-(2-methoxypyrimidin-5-yl)pyrimidin-2-yl]amine]	D (D=>20 uM)
NC(=O)c1ccc(F)c(-c2cnc(NC3(c4ccc(F)cc4)CCC3)nc2)c1 [4-fluoro-3-(2-{[(4-fluorophenyl)cyclobutyl]amino}pyrimidin-5-yl)benzamide]	A (A=<1 uM)
NC(=O)c1cccc(-c2cnc(NCC3(c4ncccc4F)CCC3)nc2)c1 [3-[2-({[(3-fluoro-2-pyridyl)cyclobutyl]methyl}amino)pyrimidin-5-yl]benzamide]	A (A=<1 uM)
CC(C)(Nc1ncc(-c2ncc(C(=O)O)o2)cn1)c1ncccc1Cl [2-(2-{[1-(3-chloro(2-pyridyl))-isopropyl]amino}pyrimidin-5-yl)-1,3-oxazole-5-carboxylic acid]	D (D=>20 uM)
COc1ncc(-c2cnc(NC(C)(C)c3ncccc3Cl)nc2)cc1C#N [5-(2-{[1-(3-chloro(2-pyridyl))-isopropyl]amino}pyrimidin-5-yl)-2-methoxypyridine-3-carbonitrile]	D (D=>20 uM)
CC(C)(CNc1ncc(-c2cc(C(N)=O)ccc2F)cn1)c1ncccc1Cl [3-(2-{[2-(3-chloro(2-pyridyl))-2-methylpropyl]amino}pyrimidin-5-yl)-4-fluorobenzamide]	A (A=<1 uM)
O=C(Nc1cnc(NCC2(c3ncccc3F)CCC2)nc1)Nc1nccs1 [{[2-({[(3-fluoro(2-pyridyl))cyclobutyl]methyl}amino)pyrimidin-5-yl]amino}-N-(1,3-thiazol-2-yl)carboxamide]	B (B=1-10 uM)
Cc1cc(NC2CCCCC2)nc(N[C@H](C)c2ccccc2)n1 [((1R)-1-phenylethyl)[4-(cyclohexylamino)-6-methylpyrimidin-2-yl]amine]	B (B=1-10 uM)
Fc1cccnc1[C@]1(CNc2ncccn2)C[C@@H](F)C1 [{[3-fluoro-1-(3-fluoro(2-pyridyl))cyclobutyl]methyl}pyrimidin-2-ylamine]	D (D=>20 uM)
O=C(O)CNC(=O)c1cnc(NCC2(c3ncccc3F)CCC2)nc1 [2-{[2-({[(3-fluoro-2-pyridyl)cyclobutyl]methyl}amino)pyrimidin-5-yl]carbonylamino} acetic acid]	D (D=>20 uM)
NC(=O)Cc1cnc(-c2cnc(NC[C@]3(c4ncccc4F)C[C@H](F)C3)nc2)s1 [2-{2-[2-({[3-fluoro-1-(3-fluoro(2-pyridyl))cyclobutyl]methyl)amino)pyrimidin-5-yl]-1,3-thiazol-5-yl}acetamide]	B (B=1-10 uM)
NC(=O)c1cnc(NC2(c3ccc(F)cc3)CCC2)nc1C(F)(F)F [2-{[(4-fluorophenyl)cyclobutyl]amino}-4-(trifluoromethyl)pyrimidine-5-carboxamide]	B (B=1-10 uM)
Cn1nc(C(N)=O)cc1-c1cnc(NC(C)(C)c2ncccc2Cl)nc1 [5-(2-{[1-(3-chloro(2-pyridyl))-isopropyl}amino}pyrimidin-5-yl)-1-methylpyrazole-3-carboxamide]	D (D=>20 uM)
CNC(=O)c1cccc(-c2cnc(NC[C@]3(c4ncccc4F)C[C@H](F)C3)nc2)c1O [{3-[2-({[3-fluoro-1-(3-fluoro(2-pyridyl))cyclobutyl]methyl}amino)pyrimidin-5-yl]-2-hydroxyphenyl}-N-methylcarboxamide]	B (B=1-10 uM)
Oc1ccc(-c2cnc(NC[C@]3(c4ncccc4F)C[C@H](F)C3)nc2)nc1 [6-[2-({[3-fluoro-1-(3-fluoro(2-pyridyl))cyclobutyl]methyl}amino)pyrimidin-5-yl]pyridin-3-ol]	B (B=1-10 uM)
CC(C)[C@H](Nc1ncc(-c2ncc(C(N)=O)s2)cn1)c1ncccc1Cl [2-(2-{[(1S)-1-(3-chloro(2-pyridyl))-2-methylpropyl]amino}pyrimidin-5-yl)-1,3-thiazole-5-carboxamide]	D (D=>20 uM)
CC(C)(Nc1ncc(-c2ccc(C(=O)O)s2)cn1)c1ncccc1Cl [5-(2-{[1-(3-chloro(2-pyridyl))-isopropyl]amino}pyrimidin-5-yl)thiophene-2-carboxylic acid]	D (D=>20 uM)
Nc1nc(NC[C@]2(c3ncccc3F)C[C@H](F)C2)ncc1-c1ccccc1 [(4-amino-5-phenylpyrimidin-2-yl){[3-fluoro-1-(3-fluoro(2-pyridyl))cyclobutyl)]methyl} amine]	B (B=1-10 uM)
NC(=O)c1cc(-c2cnc(NC3(c4ccc(F)cc4)CCC3)nc2)ccn1 [4-(2-{[(4-fluorophenyl)cyclobutyl]amino}pyrimidin-5-yl)pyridine-2-carboxamide]	B (B=1-10 uM)
CC(C)(C)Nc1ncc(-c2cccc(C(N)=O)c2)cn1 [3-{2-[(tert-butyl)amino]pyrimidin-5-yl} benzamide]	D (D=>20 uM)
CC(C)(Nc1ncc(-c2noc(C(N)=O)n2)cn1)c1ncccc1Cl [3-(2-{[1-(3-chloro(2-pyridyl))-isopropyl]amino}pyrimidin-5-yl)-1,2,4-oxadiazole-5-carboxamide]	D (D=>20 uM)

Further lines, results first:

Mean AC1.4	Compound
B (B=1-10 uM)	NC(=O)c1ccnc(-c2cnc(NC[C@]3(c4ncccc4F)C[C@H](F)C3)nc2)n1 [2-[2-({[3-fluoro-1-(3-fluoro(2-pyridyl))cyclobutyl]methyl}amino)pyrimidin-5-yl]pyrimidine-4-carboxamide]
D (D=>20 uM)	CN(C(=O)c1cnc(NCC2(c3ncccc3F)CCC2)nc1)c1nccs1 [[2-({[(3-fluoro(2-pyridyl))cyclobutyl)]methyl}amino) pyrimidin-5-yl]-N-methyl-N-(1,3-thiazol-2-yl)carboxamide]
C (C=10-20 uM)	O=C(Nc1ccccc1)c1cnc(NCC2(c3ncccc3F)CCC2)nc1 [[2-({[(3-fluoro(2-pyridyl))cyclobutyl]methyl}amino)pyrimidin-5-yl]-N-benzamide]
B (B=1-10 uM)	CC(C)(Nc1ncc(-c2cccc(C(N)=O)c2)cn1)c1ncccc1F [3-(2-{[1-(3-fluoro(2-pyridyl))-isopropyl]amino}pyrimidin-5-yl)benzamide]
D (D=>20 uM)	CC(C)(Nc1ncc(-c2nccc(C(N)=O)n2)cn1)c1ncccc1F [2-(2-{[1-(3-fluoro(2-pyridyl))-isopropyl]amino}pyrimidin-5-yl)pyrimidine-4-carboxamide]
B (B=1-10 uM)	N#Cc1n[nH]c2ccc(-c3cnc(NC4(c5ncccc5F)CCC4)nc3)cc12 [5-(2-{[(3-fluoro-2-pyridyl)cyclobutyl]amino}pyrimidin-5-yl)-1H-indazole-3-carbonitrile]
D (D=>20 uM)	CC(C)(Nc1ncc(-c2cnc(N)nc2)cn1)c1ncccc1F [[5-(2-aminopyrimidin-5-yl)pyrimidin-2-yl][1-(3-fluoro(2-pyridyl))-isopropyl]amine]
D (D=>20 uM)	N-(2-aminoethyl)[2-({[(3-fluoro(2- pyridyl))cyclobutyl]methyl}amino) pyrimidin-5-yl]carboxamide
A (A=<1 uM)	CC(C)(Nc1ncc(-c2ccc3[nH]ncc3c2)cn1)c1ncccc1Cl [(5-(1H-indazol-5-yl)]pyrimidin-2-yl)[1-(3-chloro(2-pyridyl))-isopropyl]amine]
D (D=>20 uM)	O=C(O)c1ccn(-c2cnc(NC[C@]3(c4ncccc4F)C[C@H](F)C3)nc2)c1 [1-[2-({[3-fluoro-1-(3-fluoro(2-pyridyl))cyclobutyl]methyl}amino)pyrimidin-5-yl]pyrrole-3-carboxylic acid]
D (D=>20 uM)	Oc1ccc(-c2cnc(NC[C@]3(c4ncccc4F)C[C@H](F)C3)nc2)cn1 [5-[2-({[3-fluoro-1-(3-fluoro(2-pyridyl))cyclobutyl]methyl}amino)pyrimidin-5-yl]pyridin-2-ol]
D (D=>20 uM)	CC(C)(Nc1ncc(-c2nc(C(=O)O)co2)cn1)c1ncccc1Cl [2-(2-{[1-(3-chloro(2-pyridyl))-isopropyl}amino}pyrimidin-5-yl)-1,3-oxazole-4-carboxylic acid]
